Reference: patent US20230263903A1, “PYRAZOLOAZEPINE IMMUNOCONJUGATES, AND USES THEREOF” (BOLT BIOTHERAPEUTICS, INC., priority 2020, published 2023)

Legend:
human TLR7 = target: T1, human TLR7 (Homo sapiens, UniProt Q9NYK1); test: HEK Reporter Assay, HEK293 cells expressing human TLR7; assay type: cell-based; settings: for EC50: HEK293 NFKB reporter cells expressing human TLR7, read-out: HEK293 hTLR7 EC50; for TLR7 activity relative to known TLR7 adjuvant C-1: HEK human TLR7 activity at 24 hours, FIG. 1
T1 construct: host or cells: HEK293 NF-kB reporter cells
T1 sequence (Q9NYK1 27-1049): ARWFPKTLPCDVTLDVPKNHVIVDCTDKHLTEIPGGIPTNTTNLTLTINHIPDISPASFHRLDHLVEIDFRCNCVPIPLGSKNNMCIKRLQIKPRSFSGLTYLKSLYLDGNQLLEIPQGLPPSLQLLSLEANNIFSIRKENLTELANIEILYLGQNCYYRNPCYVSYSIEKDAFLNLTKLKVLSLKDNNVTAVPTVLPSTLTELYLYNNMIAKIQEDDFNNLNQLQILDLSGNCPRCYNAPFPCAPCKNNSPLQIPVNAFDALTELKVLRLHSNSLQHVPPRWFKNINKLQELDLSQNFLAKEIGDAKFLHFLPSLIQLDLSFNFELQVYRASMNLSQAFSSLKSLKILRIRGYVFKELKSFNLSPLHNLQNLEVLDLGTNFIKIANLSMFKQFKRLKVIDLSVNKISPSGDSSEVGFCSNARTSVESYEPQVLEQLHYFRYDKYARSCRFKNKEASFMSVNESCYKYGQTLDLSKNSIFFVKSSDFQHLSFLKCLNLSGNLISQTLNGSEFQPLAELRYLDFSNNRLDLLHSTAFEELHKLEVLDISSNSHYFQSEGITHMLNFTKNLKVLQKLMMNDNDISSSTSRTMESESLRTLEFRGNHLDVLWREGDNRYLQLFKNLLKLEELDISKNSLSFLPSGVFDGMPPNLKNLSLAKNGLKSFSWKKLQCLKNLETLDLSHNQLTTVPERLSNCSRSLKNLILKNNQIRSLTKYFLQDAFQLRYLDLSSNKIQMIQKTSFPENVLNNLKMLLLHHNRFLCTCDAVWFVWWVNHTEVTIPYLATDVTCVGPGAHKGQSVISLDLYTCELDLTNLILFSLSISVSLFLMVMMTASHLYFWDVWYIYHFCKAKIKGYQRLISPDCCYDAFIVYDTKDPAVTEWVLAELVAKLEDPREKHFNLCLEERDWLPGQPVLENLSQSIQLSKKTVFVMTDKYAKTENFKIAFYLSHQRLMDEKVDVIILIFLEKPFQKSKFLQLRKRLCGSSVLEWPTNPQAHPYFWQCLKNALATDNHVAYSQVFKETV
Procedure: (§1) Activity against HEK293 NFKB reporter cells expressing human TLR7 or human TLR8 was measured according to Example 202.
(§2) Example 202 HEK Reporter Assay
(§3) HEK293 reporter cells expressing human TLR7 or human TLR8 were purchased from Invivogen and vendor protocols were followed for cellular propagation and experimentation. Briefly, cells were grown to 80-85% confluence at 5% CO2 in DMEM supplemented with 10% FBS, Zeocin, and Blasticidin. Cells were then seeded in 96-well flat plates at 4×10^4 cells/well with substrate containing HEK detection medium and immunostimulatory molecules.

human TLR8 = target: T2, human TLR8 (Homo sapiens, UniProt Q9NR97); test: HEK Reporter Assay, HEK293 cells expressing human TLR8; assay type: cell-based; settings: for EC50: HEK293 NFKB reporter cells expressing human TLR8, read-out: HEK293 hTLR8 EC50
T2 construct: host or cells: HEK293 NF-kB reporter cells
T2 sequence (Q9NR97 27-1041): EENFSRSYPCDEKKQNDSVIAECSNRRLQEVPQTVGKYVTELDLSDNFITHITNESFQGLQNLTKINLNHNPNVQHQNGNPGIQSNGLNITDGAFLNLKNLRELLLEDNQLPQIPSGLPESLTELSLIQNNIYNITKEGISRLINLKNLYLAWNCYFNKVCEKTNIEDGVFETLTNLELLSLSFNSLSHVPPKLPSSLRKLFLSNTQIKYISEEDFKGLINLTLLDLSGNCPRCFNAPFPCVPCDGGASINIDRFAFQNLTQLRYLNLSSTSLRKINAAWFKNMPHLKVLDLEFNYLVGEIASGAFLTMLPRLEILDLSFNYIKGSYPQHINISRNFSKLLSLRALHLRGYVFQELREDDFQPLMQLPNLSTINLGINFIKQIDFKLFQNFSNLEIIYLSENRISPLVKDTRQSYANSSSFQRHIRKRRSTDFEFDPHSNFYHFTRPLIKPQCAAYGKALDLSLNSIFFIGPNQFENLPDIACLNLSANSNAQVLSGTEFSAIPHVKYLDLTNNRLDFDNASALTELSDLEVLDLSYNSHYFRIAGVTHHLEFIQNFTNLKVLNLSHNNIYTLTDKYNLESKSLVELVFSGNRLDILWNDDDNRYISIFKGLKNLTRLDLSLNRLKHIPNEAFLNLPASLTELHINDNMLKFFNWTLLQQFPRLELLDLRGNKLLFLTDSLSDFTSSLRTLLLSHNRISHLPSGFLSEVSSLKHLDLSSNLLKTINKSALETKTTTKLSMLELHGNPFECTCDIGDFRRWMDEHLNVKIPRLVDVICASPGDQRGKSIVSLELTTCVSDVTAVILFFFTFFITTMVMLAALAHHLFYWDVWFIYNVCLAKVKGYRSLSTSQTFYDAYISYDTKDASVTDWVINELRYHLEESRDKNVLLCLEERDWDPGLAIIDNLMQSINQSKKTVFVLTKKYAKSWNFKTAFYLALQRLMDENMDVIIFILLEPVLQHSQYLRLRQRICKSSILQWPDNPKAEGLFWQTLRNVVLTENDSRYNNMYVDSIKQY
Procedure: as §1, §2, §3

[1] = Hydrophilicity comparison with comparator C-2; assay type: physicochemical

Row | EC50 (human TLR7) [µM] | EC50 (human TLR8) [µM] | TLR7 activity relative to known TLR7 adjuvant C-1 (human TLR7) | TLR8 potency relative to known TLR8 adjuvant C-2 (human TLR8; HEK human TLR8 activity at 24 hours, FIG. 2) | hydrophilicity relative to C-2 [1] | SMILES
1 | > 9 | 2.96 | comparable TLR7 activity | – | – | CCCN(CCC)C(=O)C1=Cc2c(cnn2CCCCCN)N=C(N)C1 [PAZ-2, 5-amino-1-(5-aminopentyl)-N,N-dipropyl-6H-pyrazolo[4,3-b]azepine-7-carboxamide]
2 | > 9 | > 9 | – | – | – | CCCN(CCC)C(=O)C1=Cc2nn(CCCCCN)cc2N=C(N)C1 [PAZ-3]
3 | 2.92 | 3.1 | – | – | – | CCCN(CCC)C(=O)C1=Cc2c(cnn2CCCCCNC(=O)OC(C)(C)C)N=C(N)C1 [PAZ-4, tert-butyl N-[5-[5-amino-7-(dipropylcarbamoyl)-6H-pyrazolo[4,3-b]azepin-1-yl]pentyl]carbamate]
4 | > 9 | > 9 | – | – | – | CCCN(CCCNC(=O)CC(C)(C)C)C(=O)C1=Cc2c(cnn2CCCCCN)N=C(N)C1 [PAZ-7, 5-amino-1-(5-aminopentyl)-N-[3-(3,3-dimethylbutanoylamino)propyl]-N-propyl-6H-pyrazolo[4,3-b]azepine-7-carboxamide]
5 | 3.21 | 0.29 | – | – | – | CCCN(OCC)C(=O)C1=Cc2c(cnn2CCCCCN)N=C(N)C1 [PAZ-12, 5-amino-1-(5-aminopentyl)-N-ethoxy-N-propyl-6H-pyrazolo[4,3-b]azepine-7-carboxamide]

Further lines, the molecule ahead of its results:

Row | SMILES | EC50 (human TLR7) [µM] | EC50 (human TLR8) [µM] | TLR7 activity relative to known TLR7 adjuvant C-1 (human TLR7) | TLR8 potency relative to known TLR8 adjuvant C-2 (human TLR8; HEK human TLR8 activity at 24 hours, FIG. 2) | hydrophilicity relative to C-2 [1]
6 | CCCN(CCC)C(=O)C1=Cc2ccc(-c3cccc(S(=O)(=O)N4CC(CO)C4)c3)cc2N=C(N)C1 [C-2, reference compound] | > 9 | 1.59 | – | – | –
7 | CCCN(CCC)C(=O)C1=Cc2c(cnn2C)N=C(N)C1 [PAZ-1, 5-amino-1-methyl-N,N-dipropyl-1,6-dihydropyrazolo[4,3-b]azepine-7-carboxamide] | > 9 | 4.15 | – | – | –
8 | CCCN(CCC)C(=O)C1=Cc2nn(CCCCCNC(=O)OC(C)(C)C)cc2N=C(N)C1 [PAZ-5] | > 9 | > 9 | – | – | –
9 | CCCN(CCC)C(=O)C1=Cc2nn(C)cc2N=C(N)C1 [PAZ-6, 5-amino-2-methyl-N,N-dipropyl-6H-pyrazolo[4,3-b]azepine-7-carboxamide] | > 9 | 4.05 | – | – | –
10 | CCCN(CCCNC(=O)CC(C)(C)C)C(=O)C1=Cc2c(cnn2CCCCCNC(=O)OC(C)(C)C)N=C(N)C1 [PAZ-8, tert-butyl N-[5-[5-amino-7-[3-(3,3-dimethylbutanoylamino)propyl-propyl-carbamoyl]-6H-pyrazolo[4,3-b]azepin-1-yl]pentyl]carbamate] | 2.75 | > 9 | – | – | –
11 | CCCN(CCCNC(=O)CC(C)(C)C)C(=O)C1=Cc2nn(CCCCCN)cc2N=C(N)C1 [PAZ-9, 5-amino-2-(5-aminopentyl)-N-[3-(3,3-dimethylbutanoylamino)propyl]-N-propyl-6H-pyrazolo[4,3-b]azepine-7-carboxamide] | > 9 | > 9 | – | – | –
12 | CCCN(CCCNC(=O)CC(C)(C)C)C(=O)C1=Cc2nn(CCCCCNC(=O)OC(C)(C)C)cc2N=C(N)C1 [PAZ-10, tert-butyl N-[5-[5-amino-7-[3-(3,3-dimethylbutanoylamino)propyl-propyl-carbamoyl]-6H-pyrazolo[4,3-b]azepin-2-yl]pentyl]carbamate] | > 9 | 3.23 | – | – | –
13 | CCCN(OCC)C(=O)C1=Cc2c(cnn2CCCCCNC(=O)OC(C)(C)C)N=C(N)C1 [PAZ-11, tert-butyl N-[5-[5-amino-7-[ethoxy(propyl)carbamoyl]-6H-pyrazolo[4,3-b]azepin-1-yl]pentyl]carbamate] | 0.795 | 1.49 | comparable TLR7 activity | better TLR8 potency | improved hydrophilicity
14 | CCCN(CCC)C(=O)C1=Cc2c(cnn2Cc2ccc(CNC(=O)OC(C)(C)C)cc2)N=C(N)C1 [PAZ-13, tert-butyl N-[[4-[[5-amino-7-(dipropylcarbamoyl)-6H-pyrazolo[4,3-b]azepin-1-yl]methyl]phenyl]methyl]carbamate] | 0.881 | 3.84 | – | – | –
15 | CCCN(CCC)C(=O)C1=Cc2c(cnn2Cc2ccc(CN)cc2)N=C(N)C1 [PAZ-14, 5-amino-1-[[4-(aminomethyl)phenyl]methyl]-N,N-dipropyl-6H-pyrazolo[4,3-b]azepine-7-carboxamide] | 5.59 | > 9 | – | – | –
16 | CCCN(CCCNC(=O)OC1CCC1)C(=O)C1=Cc2c(cnn2CCCCCN)N=C(N)C1 [PAZ-15, cyclobutyl (3-(5-amino-1-(5-aminopentyl)-N-propyl-1,6-dihydropyrazolo[4,3-b]azepine-7-carboxamido)propyl)carbamate] | > 9 | > 9 | – | – | –
